PubChem BioAssay AID256 (DTP/NCI, 2004)
Several values for one entry are separate records, joined by “and”; a condition that tells them apart may be missing. Equal entries are not always repeated. Toxic doses and inconclusive results are not listed.

Test system: CD2F1 mice, L1210 leukemia ip, survival T/C
Test: NCI In Vivo Anticancer Drug Screen. Data for tumor model L1210 Leukemia (intraperitoneal) in CD2F1 (CDF1) mice
Settings: higher = longer survival
Method in brief: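 Compound-dosed mice with transplantable tumor versus matched vehicle controls; endpoint ratio T/C reported.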

[1] = endpoint: mean survival time, dose: 25.0 mg/kg/injection, schedule: Q04DX002 (ip), vehicle: saline with Tween-80
[2] = endpoint: mean survival time, dose: 50.0 mg/kg/injection, schedule: Q04DX002 (ip), vehicle: saline with Tween-80
[3] = endpoint: mean survival time, dose: 100.0 mg/kg/injection, schedule: Q04DX002 (ip), vehicle: saline with Tween-80
[4] = endpoint: mean survival time, dose: 200.0 mg/kg/injection, schedule: Q04DX002 (ip), vehicle: saline with Tween-80
[5] = endpoint: mean survival time, dose: 25.0 mg/kg/injection, schedule: Q01DX001 (ip), vehicle: other
[6] = endpoint: mean survival time, dose: 50.0 mg/kg/injection, schedule: Q01DX001 (ip), vehicle: other
[7] = endpoint: mean survival time, dose: 100.0 mg/kg/injection, schedule: Q01DX001 (ip), vehicle: saline with Tween-80
[8] = endpoint: mean survival time, dose: 200.0 mg/kg/injection, schedule: Q01DX001 (ip), vehicle: saline with Tween-80
[9] = endpoint: mean survival time, dose: 400.0 mg/kg/injection, schedule: Q01DX001 (ip), vehicle: saline with Tween-80
[10] = endpoint: mean survival time, dose: 100.0 mg/kg/injection, schedule: Q04DX003 (ip), vehicle: saline with Tween-80
[11] = endpoint: mean survival time, dose: 200.0 mg/kg/injection, schedule: Q04DX003 (ip), vehicle: saline with Tween-80
[12] = endpoint: mean survival time, dose: 100.0 mg/kg/injection, schedule: Q01DX009 (ip), vehicle: saline with Tween-80
[13] = endpoint: mean survival time, dose: 200.0 mg/kg/injection, schedule: Q01DX009 (ip), vehicle: saline with Tween-80
[14] = endpoint: mean survival time, dose: 400.0 mg/kg/injection, schedule: Q04DX003 (ip), vehicle: saline with Tween-80
[15] = endpoint: mean survival time, dose: 50.0 mg/kg/injection, schedule: Q01DX009 (ip), vehicle: saline
[16] = endpoint: mean survival time, dose: 100.0 mg/kg/injection, schedule: Q01DX009 (ip), vehicle: saline
[17] = endpoint: mean survival time, dose: 400.0 mg/kg/injection, schedule: Q01DX009 (ip), vehicle: saline with Tween-80
[18] = endpoint: mean survival time, dose: 75.0 mg/kg/injection, schedule: Q01DX001 (ip), vehicle: saline
[19] = endpoint: mean survival time, dose: 50.0 mg/kg/injection, schedule: Q01DX009 (ip), vehicle: saline with Tween-80

CCC(=O)NC(=O)C(=O)NC(=O)CC
T/C [1]: 102 % of control
T/C [2]: 95 % of control
T/C [3]: 91 % of control
T/C [4]: 109 % of control

CCC(/C=N\O)CC
T/C (endpoint: mean survival time, dose: 100.0 mg/kg/injection, schedule: Q01DX001 (ip), vehicle: saline): 100 % of control
T/C (endpoint: mean survival time, dose: 200.0 mg/kg/injection, schedule: Q01DX001 (ip), vehicle: saline): 108 % of control

CCCCOC(=O)C1(N)CCCC1
T/C (endpoint: mean survival time, dose: 100.0 mg/kg/injection, schedule: Q04DX003 (ip), vehicle: saline): 110 % of control
T/C (endpoint: mean survival time, dose: 400.0 mg/kg/injection, schedule: Q04DX003 (ip), vehicle: saline): 102 % of control

O=NN(CCCl)C(=S)NC1CCCCC1
T/C (endpoint: mean survival time, dose: 6.25 mg/kg/injection, schedule: Q01DX001 (ip), vehicle: other): 104 % of control
T/C (endpoint: mean survival time, dose: 12.5 mg/kg/injection, schedule: Q01DX001 (ip), vehicle: other): 211 % of control
T/C [5]: 246 % of control and 403 % of control
T/C [6]: 295 % of control and 523 % of control

Cc1cc(NC(=O)Nc2ccccc2C)no1
T/C [7]: 106 % of control
T/C [8]: 100 % of control
T/C [9]: 103 % of control

Nc1nc(=S)c2ncn(C3CC(O)C(CO)C3)c2[nH]1 (stereo not given)
T/C (endpoint: mean survival time, dose: 50.0 mg/kg/injection, schedule: Q01DX009 (ip), vehicle: Klucel (hydroxypropylcellulose) (HPC)): 94 % of control
T/C (endpoint: mean survival time, dose: 100.0 mg/kg/injection, schedule: Q01DX009 (ip), vehicle: Klucel (hydroxypropylcellulose) (HPC)): 91 % of control
T/C (endpoint: mean survival time, dose: 200.0 mg/kg/injection, schedule: Q01DX009 (ip), vehicle: Klucel (hydroxypropylcellulose) (HPC)): 108 % of control

O=C(O)c1c2c(nc3ccccc13)-c1ccccc1C1(CCCC1)C2
T/C [10]: 92 % of control
T/C [11]: 99 % of control

O=[N+]([O-])c1ccc(Cl)c(CCl)c1
T/C [12]: 94 % of control
T/C [10]: 100 % of control
T/C [13]: 93 % of control
T/C [11]: 100 % of control
T/C [14]: 102 % of control

Cc1cc(=O)[nH]c(O)c1C#N
T/C [10]: 96 % of control
T/C [11]: 94 % of control
T/C [14]: 94 % of control

CCC1(C#CCN2C(=O)c3ccccc3C2=O)C=CC2(CC1)OCCO2 (stereo not given)
T/C [7]: 101 % of control
T/C [8]: 93 % of control
T/C [9]: 91 % of control

O=C=NC(=O)c1ccccc1
T/C [3]: 96 % of control
T/C [4]: 100 % of control
T/C (endpoint: mean survival time, dose: 400.0 mg/kg/injection, schedule: Q04DX002 (ip), vehicle: saline with Tween-80): 118 % of control

COc1cc2c(cc1OC)CCN=C2
T/C [15]: 106 % of control
T/C [16]: 92 % of control

NC1=NCN(C2OC(COC(=O)c3ccccc3)C(OC(=O)c3ccccc3)C2OC(=O)c2ccccc2)C(=O)N1 (stereo not given)
T/C (endpoint: mean survival time, dose: 3.12 mg/kg/injection, schedule: Q01DX009 (ip), vehicle: saline): 97 % of control and 108 % of control
T/C (endpoint: mean survival time, dose: 6.25 mg/kg/injection, schedule: Q01DX009 (ip), vehicle: saline): 91 % of control and 102 % of control
T/C (endpoint: mean survival time, dose: 12.5 mg/kg/injection, schedule: Q01DX009 (ip), vehicle: saline): 91 % of control and 100 % of control
T/C (endpoint: mean survival time, dose: 25.0 mg/kg/injection, schedule: Q01DX009 (ip), vehicle: saline): 94 % of control and 97 % of control
T/C [15]: 112 % of control and 100 % of control
T/C [16]: 122 % of control and 108 % of control
T/C (endpoint: mean survival time, dose: 200.0 mg/kg/injection, schedule: Q01DX009 (ip), vehicle: saline): 165 % of control

N#CC(NC(=O)NCCO)c1ccccc1 (stereo not given)
T/C [12]: 94 % of control
T/C [13]: 96 % of control
T/C [17]: 92 % of control

O=C(NC1CCC(NC(=O)N2CC2)CC1)N1CC1 (stereo not given)
T/C (endpoint: mean survival time, dose: 6.75 mg/kg/injection, schedule: Q01DX001 (ip), vehicle: carboxymethylcellulose (CMC)): 164 % of control
T/C (endpoint: mean survival time, dose: 10.0 mg/kg/injection, schedule: Q01DX001 (ip), vehicle: carboxymethylcellulose (CMC)): 185 % of control
T/C (endpoint: mean survival time, dose: 15.0 mg/kg/injection, schedule: Q01DX001 (ip), vehicle: carboxymethylcellulose (CMC)): 102 % of control

O=C1CC2CC=CCC2C(=O)O1 (stereo not given)
T/C [18]: 101 % of control
T/C (endpoint: mean survival time, dose: 150.0 mg/kg/injection, schedule: Q01DX001 (ip), vehicle: saline): 98 % of control

CC(CCOP(=O)(N(C)C)N(CCCl)CCCl)OCc1ccccc1 (stereo not given)
T/C [5]: 101 % of control
T/C [6]: 102 % of control
T/C (endpoint: mean survival time, dose: 100.0 mg/kg/injection, schedule: Q01DX001 (ip), vehicle: other): 98 % of control
T/C (endpoint: mean survival time, dose: 200.0 mg/kg/injection, schedule: Q01DX001 (ip), vehicle: other): 87 % of control
T/C (endpoint: mean survival time, dose: 400.0 mg/kg/injection, schedule: Q01DX001 (ip), vehicle: other): 95 % of control

CCN(CC)N=Nc1ccccc1
T/C [18]: 114 % of control

CCN(CC)CCOc1ccc(C2=CC3(CCCCC3)c3ccccc32)cc1
T/C (endpoint: mean survival time, dose: 12.5 mg/kg/injection, schedule: Q04DX002 (ip), vehicle: saline with Tween-80): 106 % of control
T/C [1]: 98 % of control

CC(C)(CO)CBr
T/C [12]: 95 % of control
T/C [10]: 95 % of control
T/C [13]: 102 % of control
T/C [11]: 97 % of control
T/C [17]: 98 % of control
T/C [14]: 95 % of control

Cc1ccc(NCCNCC(C)(C)O)c2c(=O)c3ccccc3sc12
T/C (endpoint: mean survival time, dose: 12.5 mg/kg/injection, schedule: Q04DX003 (ip), vehicle: saline): 100 % of control
T/C (endpoint: mean survival time, dose: 25.0 mg/kg/injection, schedule: Q04DX003 (ip), vehicle: saline): 103 % of control
T/C (endpoint: mean survival time, dose: 50.0 mg/kg/injection, schedule: Q01DX001 (ip), vehicle: saline): 93 % of control
T/C (endpoint: mean survival time, dose: 50.0 mg/kg/injection, schedule: Q04DX003 (ip), vehicle: saline): 92 % of control

C=Cn1ccnc1
T/C (endpoint: mean survival time, dose: 25.0 mg/kg/injection, schedule: Q01DX001 (ip), vehicle: saline with Tween-80): 103 % of control
T/C (endpoint: mean survival time, dose: 50.0 mg/kg/injection, schedule: Q01DX001 (ip), vehicle: saline with Tween-80): 100 % of control
T/C [7]: 114 % of control and 118 % of control
T/C [8]: 97 % of control
T/C [9]: 101 % of control

NNC(=O)C1CCN1C(c1ccccc1)c1ccccc1 (stereo not given)
T/C [7]: 98 % of control

NC(=S)c1ccc(C(N)=S)cc1
T/C (endpoint: mean survival time, dose: 100.0 mg/kg/injection, schedule: Q01DX001 (ip), vehicle: Klucel (hydroxypropylcellulose) (HPC)): 89 % of control
T/C [12]: 94 % of control
T/C [10]: 97 % of control
T/C (endpoint: mean survival time, dose: 200.0 mg/kg/injection, schedule: Q01DX001 (ip), vehicle: Klucel (hydroxypropylcellulose) (HPC)): 89 % of control
T/C [13]: 93 % of control
T/C [11]: 97 % of control
T/C [17]: 90 % of control
T/C [14]: 98 % of control

O=S(=O)(Cl)C(Cl)(Cl)Cl
T/C (endpoint: mean survival time, dose: 25.0 mg/kg/injection, schedule: Q01DX009 (ip), vehicle: saline with Tween-80): 96 % of control
T/C [19]: 102 % of control
T/C (endpoint: mean survival time, dose: 50.0 mg/kg/injection, schedule: Q04DX003 (ip), vehicle: saline with Tween-80): 97 % of control
T/C [12]: 95 % of control
T/C [10]: 94 % of control

CC[C@@]1(OC(=O)C(N)CCCCN)C(=O)OCc2c1cc1n(c2=O)Cc2cc3ccccc3nc2-1 (stereo not given in full)
T/C (endpoint: median survival time, dose: 7.29 mg/kg/injection, schedule: Q04DX002 (ip), vehicle: water): 114 % of control
T/C (endpoint: median survival time, dose: 10.94 mg/kg/injection, schedule: Q04HX004 (iv), vehicle: water): 165 % of control and 178 % of control
T/C (endpoint: median survival time, dose: 14.58 mg/kg/injection, schedule: Q04DX002 (ip), vehicle: water): 122 % of control
T/C (endpoint: median survival time, dose: 21.87 mg/kg/injection, schedule: Q04HX004 (iv), vehicle: water): 197 % of control and 201 % of control
T/C (endpoint: median survival time, dose: 29.17 mg/kg/injection, schedule: Q04DX002 (ip), vehicle: water): 188 % of control and 204 % of control
T/C (endpoint: median survival time, dose: 58.33 mg/kg/injection, schedule: Q04DX002 (ip), vehicle: water): 231 % of control and 253 % of control
T/C (endpoint: median survival time, dose: 116.7 mg/kg/injection, schedule: Q04DX002 (ip), vehicle: water): 214 % of control

COC1OC2COc3ccccc3OC2C(N)C1SSC1C(OC)OC2COc3ccccc3OC2C1N (stereo not given)
T/C (endpoint: mean survival time, dose: 75.0 mg/kg/injection, schedule: Q01DX001 (ip), vehicle: saline with Tween-80): 94 % of control
T/C (endpoint: mean survival time, dose: 150.0 mg/kg/injection, schedule: Q01DX001 (ip), vehicle: saline with Tween-80): 95 % of control
T/C (endpoint: mean survival time, dose: 300.0 mg/kg/injection, schedule: Q01DX001 (ip), vehicle: saline with Tween-80): 94 % of control

OC(c1ccccc1)(C1SCCCS1)C1SCCCS1
T/C [19]: 94 % of control
T/C [12]: 97 % of control
T/C [13]: 94 % of control

CNc1c(C)cc(C)c(NC)c1C
T/C [1]: 104 % of control
T/C [2]: 96 % of control
T/C [3]: 116 % of control

C=CC=O
T/C (endpoint: mean survival time, dose: 1.87 mg/kg/injection, schedule: Q01DX009 (ip), vehicle: saline): 92 % of control
